Entries after “also recorded” stand apart in the source; their conditions may differ. Counter-ions that a name gives are not always drawn.
Key:
[1] = system: C3H10T1/2 MSCs; assay: Flow-induced paracrine signaling: conditioned media of treated osteocytes on MSCs (OSX mRNA); assay type: cell-based; settings: osteocytes treated with fenoldopam 10 μM 16 hours; MSCs cultured 48 hours in conditioned media
Procedure: Osteocytes were seeded at 2800 cells/cm2 for 72 hours before application of fluid flow. MC3T3 osteoblasts were cultured in MEMα supplemented with 10% FBS and 1% P/S. Osteoblasts were seeded at 2000 cells/cm2 72 hours before receiving conditioned media. C3H10T1/2 MSCs were cultured in DMEM low glucose (Life Technologies) supplemented with 10% FBS and 1% P/S, and seeded at 1100 cells/cm2 72 hours before culture with conditioned media 150. […] Osteocytes were cultured on rectangular flasks (8.2×9.2 cm; 12.5 ml of media) on a rocking platform which oscillated at a frequency of 0.33 Hz with an amplitude of 1.3 cm, supplying 0.08 Pa shear stress for 2, 6, 12, or 24 hours, FIG. 4.2. Shear stress generated by oscillatory fluid flow was calculated as previously performed 153. 12 hours of fluid flow was used in all experiments. Cells were also cultured in static conditions as a no flow control. Conditioned media was collected from osteocytes immediately upon completion of rocking, and used to culture osteoblasts or MSCs for 24 or 48 hours, respectively. […] Gene expression was analyzed by quantitative real-time PCR using primers and probes (Life Technologies) for analysis of osteopontin, OPN (Mm00436767_m1), osterix, OSX (Mm04209856_m1), and GAPDH (4351309). […]

[2] = system: Adenylyl cyclase; assay: Adenylyl cyclase activity: forskolin stimulated cAMP ELISA; assay type: cell-based
Procedure: Adenylyl cyclase activity was quantified by cAMP ELISA (Enzo). […] Cells were stimulated by 10 μM forskolin (Sigma) or DMSO vehicle control for 20 minutes prior to lysis with 0.1 M HCl. Cell lysate was analyzed according to manufacturer's protocol, and normalized to total protein quantified by BCA (Thermo Fisher). All samples and standards were run in duplicate.

[3] = fenoldopam 100 mg/kg, rat model (Dalmas et al. 2008); cited from earlier work
[4] = μCT analysis of non-loaded ulnae; assay type: in vivo, mice; settings: for μCT: normal bone properties / microarchitecture (in words): 7 days, non-loaded ulnar midshaft
Procedure: Non-loaded ulnae were used for μCT analysis. Samples were imaged with a Scanco ViaCT 80 at 10.5 μm isotropic resolution. Images were processed using a Gaussian filter and global threshold to segment bone volumes. Ulnar midshafts were imaged and used to assess cortical bone, while the proximal epiphysis was used to examine ulnar trabecular bone. Cortical bone analysis was performed to determine total area, cortical area, marrow area, bone volume fraction (BV/TV), cortical thickness, moment of inertia (Imax and Imin), and bone mineral density (BMD). Trabecular analyses included BV/TV, connectivity density, trabecular number, trabecular thickness, trabecular spacing, and BMD.

[5] = system: MLO-Y4 osteocytes; assay: Oscillatory fluid flow-induced mRNA expression (COX-2, OPN, AC6), flow vs no flow; assay type: cell-based; settings: for COX-2 mRNA response to flow (in words) / OPN mRNA response to flow (in words): fenoldopam 16 hours, flow 1 hour, relative to GAPDH
[6] = system: MC3T3 osteoblasts; assay: Flow-induced paracrine signaling: conditioned media of treated osteocytes on osteoblasts (OPN mRNA); assay type: cell-based; settings: osteocytes treated with fenoldopam 10 μM 16 hours; 12 hrs flow; osteoblasts cultured 24 hours
[7] = system: MLO-Y4 osteocytes; assay: mRNA expression (AC6, IFT88) by quantitative real-time PCR, no flow; assay type: cell-based; settings: for IFT88 mRNA expression in untransfected cells: fenoldopam
[8] = system: MLO-Y4 osteocytes; assay: Primary cilia length and incidence by immunocytochemistry (acetylated α-tubulin); assay type: cell-based; settings: for cilia incidence in untransfected (healthy, ciliated) cells: fenoldopam; for cilia incidence in AC6 siRNA treated cells / recovering cilia length in AC6 siRNA treated cells: fenoldopam on AC6 siRNA treated cells
Procedure: MLO-Y4 osteocytes were cultured on collagen-coated dishes in MEMα (Life Tech) supplemented with 5% fetal bovine serum, 5% calf serum, and 1% penicillin/streptomycin at 37° C. and 5% CO2. […] These agents, or their vehicle control, were applied to cells for 16 h prior to experimentation. MTT, (methylthiazolyldiphenyl-tetrazolium bromide) assay (Sigma) was performed according to manufacturer's protocol to assess cell viability during drug treatments. Phase contrast microscopy with an Olympus CKX41 inverted microscope and 40× objective was used to assess cell morphology.
For primary cilia imaging and analysis, cells cultured on collagen I-coated glass were fixed in 10% formalin and treated with anti-acetylated α-tubulin primary antibody, 1:1, from a C3B9 hybridoma cell line (Sigma). Cilia were visualised with Alexa-Fluor 488 secondary antibody, 1:1000 (Life Technologies) and imaged with a 100× oil objective on an Olympus Fluoview FV1000 confocal microscope. Nuclei were stained with DAPI (Life Technologies). Cilia length was analyzed using Image J software.
Gene silencing was performed by siRNA mediated knockdown and compared to scramble siRNA control (Life Technologies). […]

[9] = Table 1, ulnar midshaft, Female
[10] = 10 μM fenoldopam 16 h, flow 1 hr, fold change flow over no flow
[11] = fenoldopam on AC6 siRNA treated cells
[12] = fenoldopam on IFT88 siRNA treated cells
[13] = fenoldopam treatment of osteocytes

cAMP response to forskolin stimulation (in words) ([2]; fenoldopam 16 h, then forskolin 20 min): significantly increases
Cortical area [4, 9]: 0.310 ± 0.003 mm^2
Cortical thickness [4, 9]: 0.173 ± 0.006 mm
Imax [4, 9]: 0.029 ± 0.001 mm^4
Imin [4, 9]: 0.005 ± 0.000 mm^4
Porosity [4, 9]: 0.131 ± 0.006%
Total area ([4]; Table 1, ulnar midshaft, Female, fenoldopam 20 mg/kg 7 days): 0.357 ± 0.005 mm^2
Cortical area ([4]; Table 1, ulnar midshaft, Male): 0.320 ± 0.023 mm^2
Cortical thickness ([4]; Table 1, ulnar midshaft, Male): 0.169 ± 0.009 mm
Imax ([4]; Table 1, ulnar midshaft, Male): 0.033 ± 0.007 mm^4
Imin ([4]; Table 1, ulnar midshaft, Male): 0.004 ± 0.001 mm^4
Porosity ([4]; Table 1, ulnar midshaft, Male): 0.134 ± 0.003%
Total area ([4]; Table 1, ulnar midshaft, Male, fenoldopam 20 mg/kg 7 days): 0.370 ± 0.027 mm^2
Cortical area ([4]; Table 5, cortical, Female): 0.310 ± 0.003 mm^2
Cortical thickness ([4]; Table 5, cortical, Female): 0.173 ± 0.006 mm
Imax ([4]; Table 5, cortical, Female): 0.029 ± 0.001 mm^4
Imin ([4]; Table 5, cortical, Female): 0.005 ± 0.000 mm^4
Cortical area ([4]; Table 5, cortical, Male): 0.320 ± 0.009 mm^2
Cortical thickness ([4]; Table 5, cortical, Male): 0.169 ± 0.004 mm
Imax ([4]; Table 5, cortical, Male): 0.033 ± 0.003 mm^4
Imin ([4]; Table 5, cortical, Male): 0.004 ± 0.001 mm^4
Marrow area ([4]; Table 5, cortical, Male): 0.049 ± 0.001 mm^2
Total area ([4]; Table 5, ulnar midshaft - cortical, non-loaded, Female, 20 mg/kg fenoldopam): 0.357 ± 0.005 mm^2
Total area ([4]; Table 5, ulnar midshaft - cortical, non-loaded, Male, 20 mg/kg fenoldopam): 0.370 ± 0.010 mm^2
μCT: normal bone properties / microarchitecture (in words) ([4]; fenoldopam 20 mg/kg): no change; also recorded: no difference
μCT: normal bone properties / microarchitecture (in words) ([4]; fenoldopam 20 mg/kg, listed as Fenoldopam): did not result in any change
μCT: normal cortical bone properties including thickness, area, and moment of inertia ([4]; fenoldopam 20 mg/kg, preliminary study, data not shown): no change
SMILES: Oc1ccc(C2CNCCc3c2cc(O)c(O)c3Cl)cc1 (stereo not drawn) [fenoldopam, Fenoldopam mesylate]
MSC osteogenic differentiation, as measured by osterix (OSX) expression [1]: significantly enhanced
enhancement of forskolin stimulated cAMP response compared to vehicle control ([2]; 10 μM fenoldopam 16 hours, then 10 μM forskolin 20 minutes): 130%±25%
vasotoxicity [3]: vasotoxic
elevated flow-induced COX-2 mRNA expression compared to unlengthened controls [5, 10]: 124%±27%
elevated flow-induced OPN mRNA expression compared to unlengthened controls [5, 10]: 48%±8%
COX-2 mRNA response to flow (in words) [5]: significant increases
OPN mRNA response to flow (in words) [5]: significant increases
COX-2 mRNA response to flow (in words) ([5]; listed as Fenoldopam): increased
OPN mRNA response to flow (in words) ([5]; listed as Fenoldopam): increased
AC6 mRNA expression in AC6 siRNA treated cells under flow [5, 11]: not recovered
flow-induced OPN mRNA expression in AC6 siRNA treated cells [5, 11]: not recovered
flow stimulated OPN expression in IFT88 siRNA treated cells (in words) [5, 12]: able to recover
recovery of flow-induced OPN response compared to IFT88 siRNA and vehicle treated cells ([5]; fenoldopam on IFT88 siRNA treated cells, flow 1 h): 52%±1%
osteoblast osteogenic gene (osteopontin, OPN) expression after conditioned media from flow-stimulated osteocytes [6]: increased; also recorded: significantly enhanced
IFT88 mRNA expression in untransfected cells [7]: no significant effect
AC6 mRNA expression (in words) [7, 13]: significantly increases
increase in AC6 mRNA expression [7, 13]: 20%±8%
IFT88 mRNA expression in untransfected cells ([7]; listed as Fenoldopam): did not alter
primary cilia length compared to vehicle control (in words) ([8]; 10 μM fenoldopam, 16 h): significantly increases
primary cilia length compared to vehicle control (in words) ([8]; 10 μM fenoldopam, 16 h, listed as Fenoldopam): increased
increases in cilia length compared to vehicle control ([8]; 10 μM fenoldopam, 16 h, mean±SEM): 26%±7%
cilia incidence in untransfected (healthy, ciliated) cells [8]: no significant effect
cilia incidence in AC6 siRNA treated cells [8]: Neither AC6 siRNA nor fenoldopam alter cilia incidence
recovering cilia length in AC6 siRNA treated cells [8]: not recovered
cilia incidence in AC6 siRNA treated cells ([8]; listed as Fenoldopam): no effect
recovering cilia length in AC6 siRNA treated cells ([8]; listed as Fenoldopam): no effect
cilia incidence in IFT88 siRNA treated cells [8, 12]: significantly recovering; also recorded: recovered
cilia length / formation in IFT88 siRNA treated cells [8, 12]: noticeably recovered; also recorded: appears to recover cilia length
cilia length / formation in IFT88 siRNA treated cells ([8]; fenoldopam on IFT88 siRNA treated cells, listed as Fenoldopam): recovers primary cilia formation
cilia incidence in untransfected (healthy, ciliated) cells ([8]; listed as Fenoldopam): no effect
